Source: patent US20250281574A1 (priority 2022, published 2025)
“Also recorded” adds a separate entry of the source. Peptide text beside a SMILES is read from it. * marks the point of attachment. Biotin = O=C1N[C@H]2[C@H](CS[C@H]2CCCCC(=O)*)N1; Ahx = NCCCCCC(=O)O

Legend:
[1] = test system: C57BL/6 mice challenged with a lethal dose of lipopolysaccharide (LPS); test: LPS-induced lung injury mouse model of ARDS, survival; assay type: in vivo
Description: C57BL/6 mice were pretreated with either 5.76 mg/kg aCT1 peptide, 5.76 mg/kg control peptide, or PBS vehicle control prior to inoculation with a lethal dose (35 mg/kg) of LPS. For FIG. 2A, n=20-22/group and p<0.0001 by Log-rank Mantel-Cox test; for FIG. 2B, n=5-8/group and p<0.001 by Log-rank Mantel-Cox test. Doses are reported as presented dose, with estimated animal body weight of 25 grams.
Studies were undertaken to assess whether delivery of aCT1 to the respiratory tract in animal models of ARDS would reduce epithelial and endothelial breakdown, thereby preserving the air-liquid barrier while preventing fluid accumulation and reducing immune cell infiltration, resulting in the amelioration of ARDS pathology and preserving lung function to improve survival. Using a well characterized mouse model of ARDS, we investigated whether aCT1 applied directly to the lungs could inhibit severe endotoxin induced lung injury. C57BL/6 mice were intranasally challenged with a lethal dose of lipopolysaccharide (LPS) and were treated with aCT1 immediately prior to LPS administration (FIG. 2A), or six (6) hours post LPS exposure (FIG. 2B).

[2] = test system: human subjects
Excerpt: (§1) Clinical trials have been undertaken to assess safety of topical delivery of aCT1.

[3] = human
Excerpt: as §1

[4] = test system: normal human bronchial epithelial (NHBE) cells; test: Trans-epithelial electrical resistance (TER) after LPS exposure; assay type: cell-based; details: aCT1 pre-treatment, 10 μg LPS, 72 hours
Description: Normal human bronchial epithelial (NHBE) cells were exposed to 10 μg LPS. […] (n=3/group; p-values reported at 72 hours compared to LPS).
(§2) To determine if aCT1 treatment preserves junctional integrity in human lung cells, human bronchial epithelial cells (NHBEs) were grown as confluent monolayers on Transwell inserts and trans-epithelial electrical resistance (TER) recorded. TER readings measure electrical resistance across a cell monolayer and provide a quantitative metric of intercellular junction integrity.

[5] = test system: cecal ligation and puncture (CLP) mouse model of sepsis; test: Cecal ligation and puncture (CLP) mouse model of sepsis; assay type: in vivo
Excerpt: 3A. For FIG. 3A, n=7-9/group and p=0.052 by Log-rank Mantel-Cox test; for FIG. 3B, n=8/group and p<0.05 by Log-rank Mantel-Cox test. Doses are reported as administered dose, with estimated animal body weight of 25 grams.
Representative images are shown.

[6] = test system: normal human bronchial epithelial cells (NHBEs); details: NHBEs treated with 100 mM alcohol
[7] = test system: ocular corneal injury models; details: cited from earlier work
[8] = test system: normal human bronchial epithelial (NHBE) cells; test: Trans-epithelial electrical resistance (TER) after H2O2 exposure; assay type: cell-based; details: NHBE monolayers; aCT1 pre-treatment; 500 mM H2O2; 72 hours
Description: (n=3/group; p-values reported at 72 hours compared to H2O2).
as §2

[9] = Intravenous (bolus) toxicity in rats; details: rat, in vivo, intravenous administration, read-out: Maximum Tolerated Dose (clinical signs observed)
Description: Intravenous administration (bolus) of aCT1 in rats was well tolerated and a 5 mg/kg dosing level was established as the no-observable-adverse-effect level (NOAEL). Clinical signs were only observed at aCT1 administration levels that are well above the therapeutic range of efficacy, following intravenous administration of aCT1 at ≥10 mg/kg (Maximum Tolerated Dose). The results of these studies uniformly support aCT1 tolerability when delivered locally and systemically via various routes.

Structure (SMILES): CC[C@H](C)[C@H](NC(=O)[C@H](CCC(=O)O)NC(=O)[C@H](CC(C)C)NC(=O)[C@H](CC(=O)O)NC(=O)[C@H](CC(=O)O)NC(=O)[C@@H]1CCCN1C(=O)[C@H](CCCNC(=N)N)NC(=O)[C@@H]1CCCN1C(=O)[C@H](CCCNC(=N)N)NC(=O)[C@H](CCCCN)NC(=O)[C@H](CCCCN)NC(=O)[C@H](Cc1c[nH]c2ccccc12)NC(=O)[C@@H]1CCCN1C(=O)[C@H](CCCCN)NC(=O)[C@H](CCCNC(=N)N)NC(=O)[C@H](CCCNC(=N)N)NC(=O)[C@H](CC(N)=O)NC(=O)[C@@H]1CCCN1C(=O)[C@H](Cc1ccccc1)NC(=O)[C@H](Cc1c[nH]c2ccccc12)NC(=O)[C@@H](NC(=O)[C@H](CCCCN)NC(=O)[C@@H]1CCCN1C(=O)[C@H](CCC(N)=O)NC(=O)[C@H](CCCNC(=N)N)NC(=O)CCCCCNC(=O)CCCC[C@@H]1SC[C@@H]2NC(=O)N[C@@H]21)[C@@H](C)CC)C(=O)O [aCT1] ({Biotin-Ahx}-RQPKIWFPNRRKPWKKRPRPDDLEI-OH; N-terminus and C-terminus assumed)
- survival ([1]; lethal LPS 35 mg/kg intranasal, 5.76 mg/kg aCT1 intranasal immediately prior to LPS, p<0.0001 Log-rank): provides significant protection against lipopolysaccharide (LPS)-induced mortality; also recorded: significantly improved survival
- survival ([1]; lethal LPS, aCT1 six hours post LPS, p<0.001 Log-rank): provides significant protection against lipopolysaccharide (LPS)-induced mortality; also recorded: significantly improved survival
- immunogenicity (anti-aCT1 antibodies) ([2]; any preclinical study or clinical trial): not immunogenic
- systemic exposure ([2]; pharmacokinetic studies in clinical trials, topical): no systemic exposure
- drug related adverse events ([2]; topical delivery, over 482 human subjects): no drug related adverse events
- half-life [3]: 15 to 20 min
- TER / barrier integrity [4]: stabilized barrier integrity; also recorded: significantly improved TER readings
- immune cell infiltration and alveolar edema (H&E lung histopathology) ([5]; 14.34 mg/kg aCT1 immediately after CLP, lungs at 12 hours post CLP): significantly decreased immune cell infiltration and alveolar edema
- survival ([5]; 14.34 mg/kg aCT1 intravenously immediately after CLP, p=0.052 Log-rank): prolonged survival
- survival ([5]; aCT1 intravenously 6 hours post CLP, p<0.05 Log-rank): prolonged survival
- electrical resistance (barrier function) [6]: improved electrical resistance
- inflammatory signaling molecules [7]: reduced inflammatory signaling molecules such as IL-6, IL-1β, TNFα, Cox-2, MMP-9, and VEGF
- TER / intercellular junction integrity [8]: stabilized intercellular junctions; also recorded: significantly increased TER readings
- MTD [9]: ≥ 10 mg/kg
